In patent US20230079819A1, “COMPOUNDS AND USES THEREOF” (Foghorn Therapeutics Inc., priority 2019, published 2023):
pIC50: −log10 of the molar value. Where two headings read alike, the source gives them in different places.

How the values were obtained:
BRM = target: T1, BRM (Homo sapiens, UniProt P51531); assay: ATPase catalytic activity of BRM, ADP-Glo in vitro biochemical assay; conditions: 30 nM BRM, 400 μM ATP; for pIC50: read-out: BRM IP50; for IC50: read-out: BRM IP50 (μM)*
T1 construct: made in house; host or cells: High Five insect cells

BRG-1 = target: T2, BRG-1 (Homo sapiens, UniProt P51532); assay: ATPase catalytic activity of BRG-1, ADP-Glo in vitro biochemical assay; conditions: 30 nM BRG-1, 400 μM ATP; for pIC50: read-out: BRG1 IP50; for IC50: read-out: BRG1 IP50 (μM)*
T2 construct: made in house; host or cells: High Five insect cells
T2 sequence (P51532 whole entry): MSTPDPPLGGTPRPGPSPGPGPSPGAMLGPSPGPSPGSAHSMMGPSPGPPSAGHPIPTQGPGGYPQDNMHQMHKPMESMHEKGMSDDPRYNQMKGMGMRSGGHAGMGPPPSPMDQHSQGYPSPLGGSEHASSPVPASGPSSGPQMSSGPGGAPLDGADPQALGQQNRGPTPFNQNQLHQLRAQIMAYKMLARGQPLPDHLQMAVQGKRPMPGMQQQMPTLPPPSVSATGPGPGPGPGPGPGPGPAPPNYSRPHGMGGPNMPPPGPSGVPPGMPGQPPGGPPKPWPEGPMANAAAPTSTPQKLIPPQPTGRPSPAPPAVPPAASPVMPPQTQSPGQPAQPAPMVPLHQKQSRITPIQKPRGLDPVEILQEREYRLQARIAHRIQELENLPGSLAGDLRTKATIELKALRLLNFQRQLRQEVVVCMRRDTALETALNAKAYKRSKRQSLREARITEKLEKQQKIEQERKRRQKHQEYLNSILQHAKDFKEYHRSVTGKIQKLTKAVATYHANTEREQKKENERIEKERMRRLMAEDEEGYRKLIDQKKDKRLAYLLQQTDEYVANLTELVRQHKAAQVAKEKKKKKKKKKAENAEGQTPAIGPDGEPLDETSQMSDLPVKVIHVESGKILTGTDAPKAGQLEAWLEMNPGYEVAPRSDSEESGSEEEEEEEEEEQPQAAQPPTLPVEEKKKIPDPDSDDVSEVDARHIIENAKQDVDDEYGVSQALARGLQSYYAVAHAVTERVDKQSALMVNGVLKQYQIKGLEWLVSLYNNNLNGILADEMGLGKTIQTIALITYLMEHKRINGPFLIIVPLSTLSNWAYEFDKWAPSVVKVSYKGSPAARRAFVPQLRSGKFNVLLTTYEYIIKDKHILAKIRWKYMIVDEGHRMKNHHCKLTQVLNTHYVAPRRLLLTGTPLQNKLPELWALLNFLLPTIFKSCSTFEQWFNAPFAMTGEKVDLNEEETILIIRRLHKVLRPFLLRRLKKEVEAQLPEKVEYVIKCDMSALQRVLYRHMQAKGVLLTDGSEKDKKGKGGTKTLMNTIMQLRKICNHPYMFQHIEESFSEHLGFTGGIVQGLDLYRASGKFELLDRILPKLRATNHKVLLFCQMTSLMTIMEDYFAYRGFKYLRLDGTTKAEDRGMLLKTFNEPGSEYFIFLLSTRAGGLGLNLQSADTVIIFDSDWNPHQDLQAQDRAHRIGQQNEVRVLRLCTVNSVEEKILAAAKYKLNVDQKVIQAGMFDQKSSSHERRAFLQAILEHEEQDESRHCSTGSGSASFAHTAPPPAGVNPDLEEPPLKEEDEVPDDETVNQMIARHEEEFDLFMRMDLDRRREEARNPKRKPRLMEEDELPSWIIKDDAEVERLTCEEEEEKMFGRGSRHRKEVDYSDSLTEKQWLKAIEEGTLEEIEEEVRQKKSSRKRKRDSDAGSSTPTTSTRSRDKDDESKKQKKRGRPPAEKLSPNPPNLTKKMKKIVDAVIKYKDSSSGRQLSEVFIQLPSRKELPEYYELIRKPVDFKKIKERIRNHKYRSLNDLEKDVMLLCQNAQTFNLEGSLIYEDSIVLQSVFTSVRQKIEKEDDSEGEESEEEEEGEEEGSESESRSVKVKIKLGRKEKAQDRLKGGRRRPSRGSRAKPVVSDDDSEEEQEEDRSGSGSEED

T1 sequence (P51531 whole entry): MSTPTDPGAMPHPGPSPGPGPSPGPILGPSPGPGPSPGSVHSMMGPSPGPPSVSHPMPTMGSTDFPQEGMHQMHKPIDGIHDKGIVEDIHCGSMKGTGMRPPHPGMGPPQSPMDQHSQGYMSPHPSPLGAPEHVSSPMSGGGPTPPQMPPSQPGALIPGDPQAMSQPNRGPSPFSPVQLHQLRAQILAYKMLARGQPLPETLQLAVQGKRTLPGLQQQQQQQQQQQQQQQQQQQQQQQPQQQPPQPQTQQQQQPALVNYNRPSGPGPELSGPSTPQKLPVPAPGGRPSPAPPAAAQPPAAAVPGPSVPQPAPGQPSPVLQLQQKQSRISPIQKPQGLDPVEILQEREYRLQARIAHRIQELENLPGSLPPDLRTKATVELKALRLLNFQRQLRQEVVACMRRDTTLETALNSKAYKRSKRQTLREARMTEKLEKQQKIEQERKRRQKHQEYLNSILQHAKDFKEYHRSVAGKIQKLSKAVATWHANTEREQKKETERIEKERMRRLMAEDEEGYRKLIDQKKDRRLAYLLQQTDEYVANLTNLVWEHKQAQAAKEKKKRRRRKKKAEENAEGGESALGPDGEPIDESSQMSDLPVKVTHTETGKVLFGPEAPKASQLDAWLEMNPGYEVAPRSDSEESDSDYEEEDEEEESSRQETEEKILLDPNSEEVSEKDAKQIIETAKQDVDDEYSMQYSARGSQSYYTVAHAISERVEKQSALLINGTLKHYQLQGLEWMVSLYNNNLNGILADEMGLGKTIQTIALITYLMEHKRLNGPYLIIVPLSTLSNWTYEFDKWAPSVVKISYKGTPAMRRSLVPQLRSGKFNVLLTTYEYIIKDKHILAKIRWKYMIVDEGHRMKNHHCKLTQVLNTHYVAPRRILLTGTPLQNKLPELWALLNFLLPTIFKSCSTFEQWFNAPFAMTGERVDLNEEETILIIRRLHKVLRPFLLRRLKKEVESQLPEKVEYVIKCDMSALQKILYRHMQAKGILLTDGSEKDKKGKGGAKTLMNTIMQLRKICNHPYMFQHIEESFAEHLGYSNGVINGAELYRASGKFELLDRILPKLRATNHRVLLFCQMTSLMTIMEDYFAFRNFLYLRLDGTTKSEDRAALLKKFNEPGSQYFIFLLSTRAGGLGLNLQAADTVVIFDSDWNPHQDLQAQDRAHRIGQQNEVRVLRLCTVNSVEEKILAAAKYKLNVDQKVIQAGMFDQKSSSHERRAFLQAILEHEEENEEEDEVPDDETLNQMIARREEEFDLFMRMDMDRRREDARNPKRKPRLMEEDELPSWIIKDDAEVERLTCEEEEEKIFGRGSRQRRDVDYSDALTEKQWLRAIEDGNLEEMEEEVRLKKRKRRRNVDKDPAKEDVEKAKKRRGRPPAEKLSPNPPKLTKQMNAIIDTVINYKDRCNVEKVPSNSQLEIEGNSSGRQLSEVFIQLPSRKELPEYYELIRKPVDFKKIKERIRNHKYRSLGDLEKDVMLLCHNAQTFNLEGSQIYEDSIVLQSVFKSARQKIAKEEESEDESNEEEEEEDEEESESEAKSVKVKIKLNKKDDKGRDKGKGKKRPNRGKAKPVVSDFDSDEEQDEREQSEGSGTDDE

Row | SMILES | IC50 (BRM; ATPase catalytic activity) [µM] | IC50 (BRG-1; ATPase catalytic activity) [µM] | pIC50 (BRM; ATPase catalytic activity) | pIC50 (BRG-1; ATPase catalytic activity) | other results
1 | N#CC1(n2ccc(C(=O)NCC(=O)Nc3nc(-c4cccc(OC(F)(F)F)c4)cs3)n2)CC1 [Compound 794] | – | – | – | – | pIC50 (BRM): < 7.00; pIC50 (BRG-1): < 7.00
2 | Cc1nc(-c2cccc(-c3csc(NC(=O)CNC(=O)c4ccn(S(C)(=O)=O)c4)n3)c2)c[nH]1 [Compound 17] | > 0.01 | > 0.01 | – | – | –
3 | CC1(C)CN(c2cccc(-c3csc(NC(=O)CNC(=O)c4ccn(S(C)(=O)=O)c4)n3)c2)CCC1O (stereo not drawn) [Compound 194] | < 0.01 | > 0.01 | – | – | –
4 | COC[C@H](NC(=O)c1ccn(C(C)(C)C)n1)C(=O)Nc1nc(-c2ccc3ccn(C)c(=O)c3c2)cs1 [Compound 345] | > 0.1 | > 0.1 | – | – | –
5 | Cc1cc(-c2cccc(-c3csc(NC(=O)CNC(=O)c4ccn(C(C)(C)C)c4)n3)c2)cnn1 [Compound 402] | – | – | > 8.00 | < 8.00 | –
6 | CS(=O)(=O)n1ccc(C(=O)NCC(=O)Nc2nc(-c3cccc(N4CCC(C#N)CC4)c3)cs2)c1 [Compound 216] | > 0.01 | > 0.01 | – | – | –
7 | CC(C)(C)n1ccc(C(=O)NCC(=O)Nc2nc(-c3cccc(N4CCn5ccnc5C4)n3)cs2)c1 [Compound 657] | – | – | < 8.00 | < 7.00 | –
8 | CS(=O)(=O)n1ccc(C(=O)NCC(=O)Nc2nc(-c3cccc(/C=C/c4ccncc4)c3)cs2)c1 [Compound 150] | < 0.01 | < 0.01 | – | – | –
9 | CC(C)(C)n1ccc(C(=O)NCC(=O)Nc2nc(-c3cccc(N4CC[C@H](F)C4)n3)cs2)c1 [Compound 690] | – | – | < 8.00 | < 7.00 | –
10 | COC[C@@H]1CCN(c2cccc(-c3csc(NC(=O)CNC(=O)c4ccn(S(C)(=O)=O)c4)n3)c2)C1 [Compound 201] | < 0.01 | > 0.01 | – | – | –
11 | CS(=O)(=O)n1ccc(C(=O)NCC(=O)Nc2nc(-c3cc(F)cc(OC4CC4)c3)cs2)c1 [Compound 455] | – | – | < 8.00 | < 8.00 | –
12 | CN(C)C1CN(c2cccc(-c3csc(NC(=O)CNC(=O)c4ccn(S(C)(=O)=O)c4)n3)c2)C1 [Compound 175] | > 0.01 | > 0.01 | – | – | –
13 | COC[C@H](NC(=O)c1ccn(C2(C)COC2)c1)C(=O)Nc1nc(-c2ccc(F)c(N3C[C@@H](C)O[C@@H](C)C3)n2)cs1 [Compound 376] | > 0.01 | > 0.01 | – | – | –
14 | CS(=O)(=O)n1ccc(C(=O)NCC(=O)Nc2nc(-c3cc(F)cc(C#N)c3)cs2)c1 [Compound 715] | – | – | < 8.00 | < 8.00 | –
15 | COC[C@H](NC(=O)c1ccn(S(C)(=O)=O)c1)C(=O)Nc1nc(-c2cccc(-c3ccnc(OC)c3)c2)cs1 [Compound 443] | – | – | > 8.00 | < 8.00 | –
16 | CC(C)(C)n1ccc(C(=O)NCC(=O)Nc2nc(-c3cccc(OC(F)(F)F)n3)cs2)c1 [Compound 503] | – | – | < 7.00 | < 7.00 | –
17 | Cn1nccc1C(=O)NCC(=O)Nc1nc(-c2cccc(C#N)c2)cs1 [Compound 32, N-(2-((4-(3-cyanophenyl)thiazol-2-yl)amino)-2-oxoethyl)-1-methyl-1H-pyrazole-5-carboxamide] | > 1 | > 1 | – | – | –
18 | Cn1ccc(-c2cccc(-c3csc(NC(=O)CNC(=O)c4ccn(C5(C)COC5)n4)n3)c2)n1 [Compound 798] | – | – | – | – | pIC50 (BRM): < 7.00; pIC50 (BRG-1): < 7.00
19 | CS(=O)(=O)n1ccc(C(=O)NCC(=O)Nc2nc(-c3cccc(N4CCC(C(F)F)CC4)c3)cs2)c1 [Compound 543] | – | – | < 8.00 | < 8.00 | –
20 | COC[C@H](NC(=O)c1ccn(C(C)(C)C)c1)C(=O)Nc1nc(-c2ccnc(N3C[C@@H](C)O[C@@H](C)C3)n2)cs1 [Compound 381] | < 0.01 | > 0.01 | – | – | –
21 | CN(C)C1CCCN(c2cccc(-c3csc(NC(=O)CNC(=O)c4ccn(C(C)(C)C)c4)n3)n2)C1 (stereo not drawn) [Compound 680] | – | – | < 8.00 | < 7.00 | –
22 | CC(C)(F)COc1cccc(-c2csc(NC(=O)CNC(=O)c3ccn(C4(C#N)CC4)c3)n2)n1 [Compound 498] | – | – | < 7.00 | < 7.00 | –
23 | CC1(C#Cc2cccc(-c3csc(NC(=O)CNC(=O)c4ccn(S(C)(=O)=O)c4)n3)c2)COC1 [Compound 361, N-(2-((4-(3-((3-methyloxetan-3-yl)ethynyl)phenyl)thiazol-2-yl)amino)-2-oxoethyl)-1-(methylsulfonyl)-1H-pyrrole-3-carboxamide] | > 0.01 | > 0.01 | – | – | –
24 | COC[C@H](NC(=O)c1ccn(C2(C#N)CC2)c1)C(=O)Nc1nc(-c2ccc3ccn(C)c(=O)c3c2)cs1 [Compound 526] | – | – | < 8.00 | < 8.00 | –

Row | SMILES | IC50 (BRM; ATPase catalytic activity) [µM] | IC50 (BRG-1; ATPase catalytic activity) [µM] | pIC50 (BRM; ATPase catalytic activity) | pIC50 (BRG-1; ATPase catalytic activity) | other results
25 | COC[C@H]1CCCN(c2cccc(-c3csc(NC(=O)CNC(=O)c4ccn(C(C)(C)C)c4)n3)n2)C1 [Compound 319] | > 0.01 | > 0.01 | – | – | –
26 | COC[C@H](NC(=O)c1ccn(S(C)(=O)=O)c1)C(=O)Nc1nc(-c2cccc(N3CC[C@H](C(F)F)C3)n2)cs1 [Compound 699] | – | – | < 8.00 | < 8.00 | –
27 | CC(C)(C(=O)O)n1ccc(-c2cccc(-c3csc(NC(=O)CNC(=O)c4ccn(S(C)(=O)=O)c4)n3)c2)n1 [Compound 217, 2-methyl-2-[3-[3-[2-[[2-[(1-methylsulfonylpyrrole-3-carbonyl)amino]acetyl]amino]thiazol-4-yl]phenyl]pyrazol-1-yl]propanoic acid] | > 0.01 | > 0.01 | – | – | –
28 | COC[C@H](NC(=O)c1ccn(S(C)(=O)=O)c1)C(=O)Nc1nc(-c2ccc(F)c(OC(F)(F)F)c2)cs1 [Compound 592] | – | – | < 8.00 | < 8.00 | –
29 | COC[C@H](NC(=O)c1ccn(S(C)(=O)=O)c1)C(=O)Nc1nc(-c2cccc(N3CC[C@@H]4OCC[C@H]4C3)n2)cs1 [Compound 775] | – | – | > 8.00 | < 8.00 | –
30 | CN(C(=O)c1cccc(-c2csc(NC(=O)CNC(=O)c3ccn(S(C)(=O)=O)c3)n2)c1)c1ccccc1 [Compound 116, N-(2-((4-(3-(methyl(phenyl)carbamoyl)phenyl)thiazol-2-yl)amino)-2-oxoethyl)-1-(methylsulfonyl)-1H-pyrrole-3-carboxamide] | > 1 | > 1 | – | – | –
31 | CS(=O)(=O)n1ccc(C(=O)NCC(=O)Nc2nc(-c3cccc(COc4ccncc4)c3)cs2)c1 [Compound 108, 1-(methylsulfonyl)-N-(2-oxo-2-((4-(3-((pyridin-4-yloxy)methyl)phenyl)thiazol-2-yl)amino)ethyl)-1H-pyrrole-3-carboxamide] | < 0.01 | > 0.01 | – | – | –
32 | CC1Cc2ccc(-c3csc(NC(=O)CNC(=O)c4ccn(S(C)(=O)=O)c4)n3)cc2O1 (stereo not drawn) [Compound 249] | > 0.01 | > 0.01 | – | – | –
33 | Cn1ccc2ccc(-c3csc(NC(=O)CNC(=O)c4ccn(C5(C#N)CC5)n4)n3)cc2c1=O [Compound 793] | – | – | – | – | pIC50 (BRM): < 8.00; pIC50 (BRG-1): < 8.00
34 | C[C@H](NC(=O)c1ccn(C(C)(C)C)n1)C(=O)Nc1nc(-c2ccc3ccn(C)c(=O)c3c2)cs1 [Compound 792] | – | – | – | – | pIC50 (BRM): < 7.00; pIC50 (BRG-1): < 7.00
35 | C[C@H](NC(=O)c1ccn(C2(C)COC2)c1)C(=O)Nc1nc(-c2cccc(-c3ccn(C)n3)c2)cs1 [Compound 589] | – | – | < 8.00 | < 7.00 | –
36 | C[C@@H]1CN(c2cccc(-c3csc(NC(=O)CNC(=O)c4ccn(S(C)(=O)=O)c4)n3)c2)CC[C@H]1O [Compound 182, N-[2-[[4-[3-[(3R,4R)-4-hydroxy-3-methyl-1-piperidyl]phenyl]thiazol-2-yl]amino]-2-oxo-ethyl]-1-methylsulfonyl-pyrrole-3-carboxamide] | < 0.01 | < 0.01 | – | – | –
37 | CC(C)(CN)n1ccc(C(=O)NCC(=O)Nc2nc(-c3cccc(-c4ccncc4)c3)cs2)c1 [Compound 42, 1-(1-amino-2-methylpropan-2-yl)-N-(2-oxo-2-((4-(3-(pyridin-4-yl)phenyl)thiazol-2-yl)amino)ethyl)-1H-pyrrole-3-carboxamide] | > 0.01 | > 0.1 | – | – | –
38 | COC[C@H](NC(=O)c1ccn(C(C)(C)C)c1)C(=O)Nc1nc(-c2ccc3c(=O)n(C)ccc3c2)cs1 [Compound 551] | – | – | < 8.00 | < 8.00 | –
39 | CC(C)(C)n1ccc(C(=O)NCC(=O)Nc2nc(-c3cccc(N4CCC(C(F)F)C4)n3)cs2)c1 (stereo not drawn) [Compound 618] | – | – | < 8.00 | < 8.00 | –
40 | N#CC1(n2ccc(C(=O)NCC(=O)Nc3nc(-c4cccc(N5CCC5)c4F)cs3)c2)CC1 [Compound 524] | – | – | > 8.00 | < 8.00 | –
41 | COC[C@H](NC(=O)c1ccn(S(C)(=O)=O)c1)C(=O)Nc1nc(-c2cccc(-c3cccc(C)n3)c2)cs1 [Compound 356] | > 0.01 | > 0.01 | – | – | –
42 | Cc1nnc(C2CCN(c3cccc(-c4csc(NC(=O)CNC(=O)c5ccn(C(C)(C)C)c5)n4)n3)CC2)o1 [Compound 630] | – | – | < 8.00 | < 8.00 | –
43 | CS(=O)(=O)n1ccc(C(=O)NCC(=O)Nc2nc(-c3cc(F)c4c(c3)C(F)(F)CC4)cs2)c1 [Compound 719] | – | – | > 8.00 | > 8.00 | –
44 | CC(C)(C#N)n1cnc(C(=O)NCC(=O)Nc2nc(-c3cc(F)c4c(c3)OCC4)cs2)c1 [Compound 785] | – | – | < 8.00 | < 8.00 | –
45 | COC1CN(c2cccc(-c3csc(NC(=O)CNC(=O)c4ccn(S(C)(=O)=O)c4)n3)c2)C1 [Compound 246] | < 0.01 | > 0.01 | – | – | –
46 | C[C@@H]1CN(c2cc(-c3csc(NC(=O)CNC(=O)c4ccn(S(C)(=O)=O)c4)n3)cc(C3CC3)c2)C[C@H](C)O1 [Compound 267] | > 0.1 | > 0.1 | – | – | –
47 | CS(=O)(=O)n1ccc(C(=O)NCC(=O)Nc2nc(-c3cccc(N4CCC4)c3)cs2)c1 [Compound 233] | < 0.01 | > 0.01 | – | – | –
48 | CS(=O)(=O)n1ccc(C(=O)NCC(=O)Nc2nc(-c3cccc(C(F)(F)F)c3)cs2)c1 [Compound 463] | – | – | < 8.00 | < 8.00 | –
